Measured values as given in patent publication US20240425484A1, “INHIBITORS OF TYK2” (Atomwise Inc., priority 2023, published 2024).

biological target: T1, TYK2-JH2 (Homo sapiens, UniProt P29597); assay: TYK2-JH2 HTRF binding assay (ligand efficiency); details: calculated (Equation 1) from IC50 of the TYK-JH2 binding assay
T1 construct: TYK JH2 enzyme mix (ChemPartner: CP20210818A-BV); purchased ChemPartner CP20210818A-BV
Protocol: The following example describes the TYK2-JH2 HTRF binding assay used to determine the ligand efficiency of the TYK2 inhibitors.
To calculate ligand efficiency, Equation 1 is applied: […]
in which IC50 comes from the binding assay used to determine compound potency.
TYK JH2 enzyme mix (ChemPartner: CP20210818A-BV), tracer (ChemPartner: CP-0029472-051) and mAb Anti-6HIS Tb cryptate Gold (Cisbio: Cat No. 61HI2TLA) mix were prepared in assay buffer (10 mM MgCl2, 20 mM HEPES pH 7.5, 0.01% Triton X-100, 1 mM DTT). Compounds diluted in DMSO (Final Concentrations 0.1 to 0.000005 [μM]) and enzyme mix (0.5 nM Final Concentration) were added to 384 well plates, briefly centrifuged and incubated at room temperature for 10 minutes. After incubation, tracer mix (Tracer-35 nM final concentration); (MAb Anti-6HIS Tb cryptate Gold-0.5X final)) was added, briefly centrifuged then incubate at room temperature 60 minutes. After incubation, plates were read by Envision TR-FRET (Ex340/Em495/520) protocol (PerkinElmer-Envision 2104 multilabel plate reader).

T1 sequence (P29597 589-875 limits assumed): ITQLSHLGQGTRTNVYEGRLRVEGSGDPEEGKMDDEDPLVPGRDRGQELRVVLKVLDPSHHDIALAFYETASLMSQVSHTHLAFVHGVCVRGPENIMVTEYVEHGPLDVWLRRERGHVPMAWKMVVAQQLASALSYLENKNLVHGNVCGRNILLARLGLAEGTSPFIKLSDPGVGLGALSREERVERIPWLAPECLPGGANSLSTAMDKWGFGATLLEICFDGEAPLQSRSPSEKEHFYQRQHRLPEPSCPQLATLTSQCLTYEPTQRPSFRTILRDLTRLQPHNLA

SMILES | Ligand Efficiency
C[C@@H](c1ccc(Nc2cc(Nc3ncc(Cl)cc3S(C)(=O)=O)ncn2)nc1)N1CC2(COC2)C1 [Compound 14, (S)—N^4-(5-(1-(2-oxa-6-azaspiro[3.3]heptan-6-yl)ethyl)pyridin-2-yl)-N^6-(5-chloro-3-(methylsulfonyl)pyridin-2-yl)pyrimidine-4,6-diamine] | ††† (†††: >0.39)
Cc1cccc(Nc2cc(Nc3ncccc3CS(C)(=O)=O)ncn2)n1 [Compound 71, N^4-(6-methylpyridin-2-yl)-N^6-(3-((methylsulfonyl)methyl)pyridin-2-yl)pyrimidine-4,6-diamine] | ††† (†††: >0.39)
Cc1cnnc(Nc2cc(Nc3ccccc3C(N)=O)ncn2)c1 [Compound 47, 2-((6-((5-methylpyridazin-3-yl)amino)pyrimidin-4-yl)amino)benzamide] | ††† (†††: >0.39)
COc1ccc(Nc2cc(NC(=O)C3CC3)ncn2)c(C(N)=O)c1 [Compound 70, 2-((6-(cyclopropanecarboxamido)pyrimidin-4-yl)amino)-5-methoxy benzamide] | ††† (†††: >0.39)
CC(c1ccc(Nc2cc(Nc3ncccc3S(C)(=O)=O)ncn2)nc1)N1CC(F)C1 (stereo not drawn) [Compound 22, N^4-(5-(1-(3-fluoroazetidin-1-yl)ethyl)pyridin-2-yl)-N^6-(3-(methylsulfonyl)pyridin-2-yl)pyrimidine-4,6-diamine] | ††† (†††: >0.39)
CS(=O)(=O)c1ccccc1Nc1cc(NC(=O)C2CC2)ncn1 [Compound 69, N^4-(cyclopropylcarbonyl)-N^6-(2-(methylsulfonyl)phenyl)pyrimidine-4,6-diamine] | ††† (†††: >0.39)
Cc1cc(Nc2cc(Nc3ncccc3S(C)(=O)=O)ncn2)ncc1NC1(C)COC1 [Compound 23, N^4-(4-methyl-5-((3-methyloxetan-3-yl)amino)pyridin-2-yl)-N^6-(3-(methylsulfonyl)pyridin-2-yl)pyrimidine-4,6-diamine] | ††† (†††: >0.39)
Cn1cc(-c2ccnc(Nc3cc(Nc4ccc(NC5(C)COC5)cn4)ncn3)c2S(C)(=O)=O)cn1 [Compound 72, N^4-(4-(1-methyl-1H-pyrazol-4-yl)-3-(methylsulfonyl)pyridin-2-yl)-N^6-(5-(3-methyloxetan-3-ylamino)pyridin-2-yl)pyrimidine-4,6-diamine] | † (†: <0.37)
Cc1cccc(Nc2cc(Nc3ccccc3S(C)(=O)=O)nc(C)n2)n1 [Compound 56, 2-methyl-N^4-(6-methylpyridin-2-yl)-N^6-(2-(methylsulfonyl)phenyl)pyrimidine-4,6-diamine] | † (†: <0.37)
Cc1cccc(Nc2cc(Nc3ccncc3S(C)(=O)=O)ncn2)n1 [Compound 60, N^4-(6-methylpyridin-2-yl)-N^6-(3-(methylsulfonyl)pyridin-4-yl)pyrimidine-4,6-diamine] | ††† (†††: >0.39)
COc1ccnc(Nc2cc(Nc3cccc(C)n3)ncn2)c1S(C)(=O)=O [Compound 65, N^4-(4-methoxy-3-(methylsulfonyl)pyridin-2-yl)-N^6-(6-methylpyridin-2-yl)pyrimidine-4,6-diamine] | ††† (†††: >0.39)
CS(=O)(=O)c1cccnc1Nc1cc(Nc2ccc(C(=O)NC3CC(F)(F)C3)cn2)ncn1 [Compound 38, N-(3,3-difluorocyclobutyl)-6-(6-(3-(methylsulfonyl)pyridine-2-ylamino)pyrimidin-4-ylamino) nicotinamide] | ††† (†††: >0.39)
Cc1cccc(Nc2cc(Nc3cnccc3C(N)=O)ncn2)n1 [Compound 61, 3-((6-((6-methylpyridin-2-yl)amino)pyrimidin-4-yl)amino) isonicotinamide] | ††† (†††: >0.39)
Cc1cccc(Nc2cc(Nc3cccnc3S(C)(=O)=O)ncn2)n1 [Compound 59, N^4-(6-methylpyridin-2-yl)-N^6-(2-(methylsulfonyl)pyridin-3-yl)pyrimidine-4,6-diamine] | ††† (†††: >0.39)
Cc1cccnc1Nc1cc(Nc2ccccc2C(N)=O)ncn1 [Compound 68, 2-((6-((3-methylpyridin-2-yl)amino)pyrimidin-4-yl)amino)benzamide] | ††† (†††: >0.39)
CC1(Nc2cnc(Nc3cc(Nc4ncccc4S(C)(=O)=O)ncn3)cn2)COC1 [Compound 74, N^4-(5-(3-methyloxetan-3-ylamino)pyrazin-2-yl)-N^6-(3-(methylsulfonyl)pyridin-2-yl)pyrimidine-4,6-diamine] | ††† (†††: >0.39)
Cc1ccnc(Nc2cc(Nc3ccccc3C(N)=O)ncn2)c1 [Compound 45, 2-((6-((4-methylpyridin-2-yl)amino)pyrimidin-4-yl)amino)benzamide] | ††† (†††: >0.39)

SMILES | Ligand Efficiency
Cc1cccc(Nc2cc(Nc3ncccc3C(N)=O)ncn2)n1 [Compound 52, 2-((6-((6-methylpyridin-2-yl)amino)pyrimidin-4-yl)amino) nicotinamide] | ††† (†††: >0.39)
CS(=O)(=O)c1cccnc1Nc1cc(Nc2cccc(C(F)(F)F)n2)ncn1 [Compound 19, N^4-(3-(methylsulfonyl)pyridin-2-yl)-N^6-(6-(trifluoromethyl)pyridin-2-yl)pyrimidine-4,6-diamine] | ††† (†††: >0.39)
C[C@@H](c1ccc(Nc2cc(Nc3ncccc3S(C)(=O)=O)ncn2)nc1)N1CC2(CCOC2)C1 [Compound 32, (S)—N^4-(5-(1-(6-oxa-2-azaspiro[3.4]octan-2-yl)ethyl)pyridin-2-yl)-N^6-(3-(methylsulfonyl)pyridin-2-yl)pyrimidine-4,6-diamine] | ††† (†††: >0.39)
CC(c1ccc(Nc2ncnc(Nc3ncccc3S(C)(=O)=O)c2F)nc1)N1CC2(COC2)C1 (stereo not drawn) [Compound 75, N^4-(5-(1-(2-oxa-6-azaspiro[3.3]heptan-6-yl)ethyl)pyridin-2-yl)-5-fluoro-N^6-(3-(methylsulfonyl)pyridin-2-yl)pyrimidine-4,6-diamine] | † (†: <0.37)
Cc1cccc(Nc2cc(Nc3cccnc3C(N)=O)ncn2)n1 [Compound 50, 3-((6-((6-methylpyridin-2-yl)amino)pyrimidin-4-yl)amino) picolinamide] | ††† (†††: >0.39)
CC(c1ccc(Nc2cc(Nc3ncccc3S(C)(=O)=O)ncn2)nc1)N1CC2(CC(F)C2)C1 (stereo in doubt) [Compound 10, N^4-(5-((1R)-1-(6-fluoro-2-azaspiro[3.3]heptan-2-yl)ethyl)pyridin-2-yl)-N^6-(3-(methylsulfonyl)pyridin-2-yl)pyrimidine-4,6-diamine] | ††† (†††: >0.39)
CS(=O)(=O)c1cccnc1Nc1cc(Nc2ccc3c(n2)CC[C@@H]3N2CC3(COC3)C2)ncn1 [Compound 9, N^4-((5S)-5-(2-oxa-6-azaspiro[3.3]heptan-6-yl)-6,7-dihydro-5H-cyclopenta[b]pyridin-2-yl)-N^6-(3-(methylsulfonyl)pyridin-2-yl)pyrimidine-4,6-diamine] | ††† (†††: >0.39)
CC1(Nc2ccc(Nc3cc(Nc4ncccc4S(C)(=N)=O)ncn3)nc2)COC1 (stereo not drawn) [Compound 73, N^4-(5-((3-methyloxetan-3-yl)amino)pyridin-2-yl)-N^6-(3-(S-methylsulfonimidoyl)pyridin-2-yl)pyrimidine-4,6-diamine] | ††† (†††: >0.39)
Cc1ccnc(Nc2cc(Nc3ccccc3C(N)=O)ncn2)n1 [Compound 58, 2-(6-(4-methylpyrimidin-2-ylamino)pyrimidin-4-ylamino)benzamide] | ††† (†††: >0.39)
C[C@@H](c1ccc(Nc2cc(Nc3ncccc3S(C)(=O)=O)ncn2)nc1)N1C[C@H]2COC[C@H]2C1 [Compound 25, N^4-(3-(methylsulfonyl)pyridin-2-yl)-N^6-(5-(1-((3aR,6aS)-tetrahydro-1H-furo[3,4-c]pyrrol-5 (3H)-yl)ethyl)pyridin-2-yl)pyrimidine-4,6-diamine] | ††† (†††: >0.39)
Cn1ccc(Nc2cc(Nc3ccccc3C(N)=O)ncn2)n1 [Compound 67, 2-((6-((1-methyl-1H-pyrazol-3-yl)amino)pyrimidin-4-yl)amino)benzamide] | ††† (†††: >0.39)
Cc1cccc(Nc2cc(Nc3ccccc3S(C)(=O)=O)nc(N)n2)n1 [Compound 57, N^4-(6-methylpyridin-2-yl)-N^6-(2-(methylsulfonyl)phenyl)pyrimidine-2,4,6-triamine] | ††† (†††: >0.39)
Cn1ccc(Nc2cc(Nc3ccccc3S(C)(=O)=O)ncn2)n1 [Compound 66, N^4-(1-methyl-1H-pyrazol-3-yl)-N^6-(2-(methylsulfonyl)phenyl)pyrimidine-4,6-diamine] | ††† (†††: >0.39)
CS(=O)(=O)c1ccccc1Nc1cc(Nc2ccc(NC3COC3)cn2)ncn1 [Compound 80, N^4-(2-(methylsulfonyl)phenyl)-N^6-(5-(oxetan-3-ylamino)pyridin-2-yl)pyrimidine-4,6-diamine] | † (†: <0.37)
CC(NC1CC(F)(F)C1)c1ccc(Nc2cc(Nc3ncccc3S(C)(=O)=O)ncn2)nc1 (stereo not drawn) [Compound 35, N^4-(5-(1-(3,3-difluorocyclobutylamino)ethyl)pyridin-2-yl)-N^6-(3-(methylsulfonyl)pyridin-2-yl)pyrimidine-4,6-diamine] | ††† (†††: >0.39)
Cc1nccc(Nc2cc(Nc3ccccc3C(N)=O)ncn2)n1 [Compound 48, 2-((6-((2-methylpyrimidin-4-yl)amino)pyrimidin-4-yl)amino)benzamide] | ††† (†††: >0.39)
